Measurements reported in patent publication US8440652B2, “MST1 kinase inhibitors and methods of their use” (Lexicon Pharmaceuticals, Inc., priority 2011, dated 2013).
Read-outs that look alike come from different tables or passages of the source.

How the values were obtained:
MST1 = biological target: T1, MST1 (Homo sapiens, UniProt Q13043); assay: In vitro measurement of MST1 inhibition (Z′-Lyte kinase assay); type: biochemical
T1 sequence (Q13043 1-487): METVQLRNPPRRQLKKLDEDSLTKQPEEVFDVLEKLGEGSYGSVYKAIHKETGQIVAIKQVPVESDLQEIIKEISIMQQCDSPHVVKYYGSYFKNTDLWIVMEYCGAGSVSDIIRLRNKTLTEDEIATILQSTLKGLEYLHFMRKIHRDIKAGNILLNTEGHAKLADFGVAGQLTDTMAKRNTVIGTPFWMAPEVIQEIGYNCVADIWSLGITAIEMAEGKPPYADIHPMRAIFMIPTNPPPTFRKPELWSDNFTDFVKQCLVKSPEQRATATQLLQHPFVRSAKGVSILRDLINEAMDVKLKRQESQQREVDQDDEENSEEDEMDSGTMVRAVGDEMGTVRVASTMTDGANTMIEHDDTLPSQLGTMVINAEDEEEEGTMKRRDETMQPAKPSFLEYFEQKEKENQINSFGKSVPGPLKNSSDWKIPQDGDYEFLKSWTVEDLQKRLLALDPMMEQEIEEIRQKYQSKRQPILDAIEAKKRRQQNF

rat EAE model = assay: Rat EAE disease model; type: in vivo
[1] = test system: Con-A induced hepatitis model; assay: Con-A induced hepatitis model; type: in vivo, mouse
Procedure: This model was generally conducted as follows. C57Bl/6-Albino/129SvEv mice were injected intravenously (i/v) via the lateral tail vein with a single sublethal dose of Concanavalin A from Canavalia ensiformis (Jack bean, Type IV-S, lyophilized powder, aseptically processed; Sigma) administered at 10-16 mg/kg mouse body weight in a total volume of 0.1-0.3 ml of pyrogen-free PBS. The tail vein injections of mice restrained in a Plexiglas mouse restrainer were performed without anesthesia, using a 1 ml syringe with a 27 gauge needle. At six and 24 hr post-injection, blood samples were collected by retro-orbital bleeding. The animals were sacrificed and sera from the blood samples were analyzed for the presence of IL-12, TNF-α, MCP-1, IFN-γ, IL-10, and IL-6 using a mouse inflammation cytometric bead array (CBA) kit (BD Biosciences, Mountain View, Calif.), according to the manufacturer's instructions. Data were acquired with a FACSCalibur flow cytometer and analyzed with BD CBA Software (BD Biosciences). Biochemical markers of liver failure were assessed by measuring serum liver damage enzymes, aspartate aminotransferase (AST) and alanine aminotransferase (ALT), using a standard clinical biochemical analyzer. Livers of ConA-treated mice were sectioned and stained with H&E to evaluate the degree of T cell-mediated immune inflammation.

mouse CIA disease model = assay: Mouse CIA disease model; type: in vivo; settings: mice, 10, 30, 100 mg/kg PO bid 21 days from Day 20 after immunization; FIG. 4
Procedure: Eight to 16 weeks old DBA/1 mice were immunized intradermally (i.d.) at several sites into the base of the tail with 100 μg of chicken type II collagen (CII; Sigma Chemical Co.) in Freund's complete adjuvant (CFA; Difco, Detroit, Mich.) containing 2.5 mg/ml M. tuberculosis, followed by a repeat booster i.d. injection of CII (100 μg emulsified in CFA) given 3 weeks after the primary immunization. Mice were monitored daily for signs of arthritis, and disease severity scores were assessed by a visual scoring of 0 to 4 according to the following scale: 0=no erythema and swelling; 1=erythema and mild swelling of the mid-foot or ankle joint; 2=erythema and mild swelling extending from the ankle to the mid-foot; 3=erythema and moderate swelling extending from the ankle to the metatarsal joints; 4=erythema and severe swelling of the ankle, foot, and digits. Total disease severity scores were recorded as a sum of visual scores for four limbs. In addition to visual scoring, paw thickness was measured with a micrometer caliper.

rat CIA disease model = assay: Rat CIA disease model; type: in vivo; settings: rats, 10 and 25 mg/kg PO BID, 50 mg/kg QD from Day 11 after immunization; FIG. 5
Procedure: CIA was elicited in rats according to Rosloniec, E. F., et al., Curr Protoc Immunol Chapter 15: Unit 15, pp. 11-25. Here, Lewis rats (150-200 g, female; Charles River Laboratories, Wilmington, Mass.) were injected intradermally at the base of the tail with a total of 300 μl of a 1:1 emulsion of bovine type II collagen (CII; 150 μg total; Sigma-Aldrich) and incomplete Freund's adjuvant (IFA; 150 μl total; Sigma-Aldrich), followed by a repeat booster injection of the same emulsion 7 days after the primary immunization. Rats were monitored for signs of arthritis by clinical scoring (visual observation) of each rat paw, using the rating scale described above. The extent of swelling was calculated by subtracting the baseline values of the first measurement from the values of subsequent measurements.

[2] = 1 μM ATP, read-out: IC50 (μM) 1 μM ATP
[3] = 50 μM ATP, read-out: IC50 (μM) 50 μM ATP

Structure (SMILES) | IC50 (MST1; [2]) | IC50 (MST1; [3]) | other results
N#CC1(c2ccc(-c3cnc(N)c(-c4ccc5c(c4)CCNC5=O)n3)cc2)CC1 [1-(4-(5-amino-6-(1-oxo-1,2,3,4-tetrahydroisoquinolin-6-yl)pyrazin-2-yl)phenyl)cyclopropanecarbonitrile] | < 0.05 µM | < 0.01 µM | severity of clinical score (rat EAE model; rats, 0.3, 1, 3 or 10 mg/kg PO QD from Day 10 after immunization, FIG. 7A): dose-dependent reduction in severity of clinical score; TNF-α, IL-6, MCP-1, IFN-γ, ALT and AST ([1]; mice, 1, 3, 10, 30 mg/kg PO 16 h and 1 h before and 8 h after Con-A challenge, FIG. 8): clear effect
N#CCn1cc(-c2cnc(N)c(-c3ccc4c(c3)CCNC4=O)n2)cn1 [2-(4-(5-amino-6-(1-oxo-1,2,3,4-tetrahydroisoquinolin-6-yl)pyrazin-2-yl)-1H-pyrazol-1-yl)acetonitrile] | < 0.15 µM | < 0.05 µM | –
CCCN(C)S(=O)(=O)c1ccc(-c2cnc(N)c(-c3ccc4c(c3)CCNC4=O)n2)cc1Cl [4-(5-amino-6-(1-oxo-1,2,3,4-tetrahydroisoquinolin-6-yl)pyrazin-2-yl)-2-chloro-N-methyl-N-propylbenzenesulfonamide] | < 0.01 µM | < 0.01 µM | –
N#CC1(c2ccc(-c3cnc(N)c(-c4ccc5c(c4)CCCNC5=O)n3)cc2)CCOCC1 [4-(4-(5-amino-6-(1-oxo-2,3,4,5-tetrahydro-1H-benzo[c]azepin-7-yl)pyrazin-2-yl)phenyl)tetrahydro-2H-pyran-4-carbonitrile] | < 0.05 µM | < 0.01 µM | –
Nc1ncc(-c2ccc(S(=O)(=O)NC3CCC3)cc2)cc1-c1ccc2c(c1)CCNC2=O [4-(6-amino-5-(1-oxo-1,2,3,4-tetrahydroisoquinolin-6-yl)pyridin-3-yl)-N-cyclobutylbenzenesulfonamide] | < 0.01 µM | < 0.01 µM | –
CCCOc1ccc(-c2cnc(N)c(-c3ccc(C(N)=O)cc3)c2)cc1 [4-(2-amino-5-(4-propoxyphenyl)pyridin-3-yl)benzamide] | – | < 0.15 µM | –
COc1ccc(-c2cnc(N)c(C(=O)NC3CCCCC3)n2)cc1OC [3-amino-N-cyclohexyl-6-(3,4-dimethoxyphenyl)pyrazine-2-carboxamide] | – | < 0.15 µM | –
CN(C1CC1)S(=O)(=O)c1ccc(-c2cnc(N)c(-c3ccc4c(c3)C(C)(C)CNC4=O)n2)cc1 [4-(5-amino-6-(4,4-dimethyl-1-oxo-1,2,3,4-tetrahydroisoquinolin-6-yl)pyrazin-2-yl)-N-cyclopropyl-N-methylbenzenesulfonamide] | < 0.01 µM | < 0.01 µM | –
N#Cc1ccc(-c2cnc(N)c(-c3ccc4c(c3)CCNC4=O)n2)cc1 [4-(5-amino-6-(1-oxo-1,2,3,4-tetrahydroisoquinolin-6-yl)pyrazin-2-yl)benzonitrile] | < 0.05 µM | < 0.01 µM | –
Cc1cc(-c2cnc(N)c(-c3ccc4c(c3)CCNC4=O)n2)ccc1C(C)(C)C#N [2-(4-(5-amino-6-(1-oxo-1,2,3,4-tetrahydroisoquinolin-6-yl)pyrazin-2-yl)-2-methylphenyl)-2-methylpropanenitrile] | < 0.05 µM | < 0.01 µM | –
N#CC1(c2ccc(-c3cnc(N)c(-c4ccc5c(c4)C4(CC4)CNC5=O)n3)cc2)CC1 [1-(4-(5-amino-6-(1′-oxo-2′,3′-dihydro-1′H-spiro[cyclopropane-1,4′-isoquinolin]-6′-yl)pyrazin-2-yl)phenyl)cyclopropanecarbonitrile] | < 0.01 µM | < 0.01 µM | –
N#CCc1ccc(-c2cnc(N)c(-c3ccc4c(c3)CCNC4=O)n2)s1 [2-(5-(5-amino-6-(1-oxo-1,2,3,4-tetrahydroisoquinolin-6-yl)pyrazin-2-yl)thiophen-2-yl)acetonitrile] | < 0.05 µM | < 0.01 µM | –

Further lines, with some results ahead:

IC50 (MST1; [2]) | IC50 (MST1; [3]) | Structure (SMILES) | other results
< 0.01 µM | < 0.01 µM | CN(C1CC1)S(=O)(=O)c1ccc(-c2cnc(N)c(-c3ccc4c(c3)CCNC4=O)c2)cc1 [4-(6-amino-5-(1-oxo-1,2,3,4-tetrahydroisoquinolin-6-yl)pyridin-3-yl)-N-cyclopropyl-N-methylbenzenesulfonamide] | severity of clinical score (rat EAE model; rats, 10, 25 or 50 mg/kg PO BID from Day 9 after immunization, FIG. 3): dose-dependent reduction in severity of clinical score; cumulative arthritis score and change in ankle thickness (mouse CIA disease model): clear benefit versus control; cumulative arthritis score and change in ankle thickness (rat CIA disease model): therapeutic effect; TNF-α, IL-6, MCP-1, IFN-γ, ALT and AST ([1]; mice, 10, 30, 100 mg/kg dosed 16 h and 1 h before and 8 h after Con-A challenge, FIG. 6): clear effect
< 0.05 µM | < 0.01 µM | CN(C1CC1)S(=O)(=O)c1ccc(-c2cnc(N)c(-c3ccc4c(c3)CCNC4=O)n2)cn1 [5-(5-amino-6-(1-oxo-1,2,3,4-tetrahydroisoquinolin-6-yl)pyrazin-2-yl)-N-cyclopropyl-N-methylpyridine-2-sulfonamide] | –
< 0.01 µM | < 0.01 µM | Cc1cc(-c2cnc(N)c(-c3ccc4c(c3)CCNC4=O)c2)ccc1S(=O)(=O)N(C)C1CC1 [4-(6-amino-5-(1-oxo-1,2,3,4-tetrahydroisoquinolin-6-yl)pyridin-3-yl)-N-cyclopropyl-N,2-dimethylbenzenesulfonamide] | –
< 0.01 µM | < 0.01 µM | Nc1ncc(-c2ccc(S(=O)(=O)NC3CC3)cc2)cc1-c1ccc2c(c1)CCNC2=O [4-(6-amino-5-(1-oxo-1,2,3,4-tetrahydroisoquinolin-6-yl)pyridin-3-yl)-N-cyclopropylbenzenesulfonamide] | –
– | < 0.15 µM | CCN(CC)S(=O)(=O)c1ccc(-c2cnc(N)c(-c3ccc4c(c3)CCCC(=O)N4)c2)cc1 [4-(6-amino-5-(2-oxo-2,3,4,5-tetrahydro-1H-benzo[b]azepin-7-yl)pyridin-3-yl)-N,N-diethylbenzenesulfonamide] | –
< 0.05 µM | < 0.01 µM | CCN(CC)S(=O)(=O)c1ccc(-c2cnc(N)c(-c3ccc4c(O)ncnc4c3)c2)cc1 [4-(6-amino-5-(4-hydroxyquinazolin-7-yl)pyridin-3-yl)-N,N-diethylbenzenesulfonamide] | –
